ChEMBL document CHEMBL1134716, “Synthesis and evaluation of GGPP geometric isomers: divergent substrate specificities of FTase and GGTase I” (Bioorg Med Chem Lett, 2001)

Biological target: Geranylgeranyl transferase type I (Homo sapiens, UniProt P49354+P53609)
Assay: Inhibition of recombinant mammalian Geranylgeranyl transferase type I expressed in baculovirus

IC50 [nM] | SMILES
100 | CC(C)=CCC/C(C)=C/CC/C(C)=C/CC/C(C)=C\COP(=O)(O)OP(=O)(O)O
340 | CC(C)=CCC/C(C)=C/CC/C(C)=C\CC/C(C)=C/COP(=O)(O)OP(=O)(O)O
